Assay results as given in patent US12459934B2, “Pesticidal compounds” (BASF SE, priority 2018, dated 2025).

What was measured:
Assay type in all cases: in vivo
[1] = tested on: Silverleaf Whitefly (Bemisia argentifolii) (Adults); test: Silverleaf whitefly adults on sprayed cotton plants; settings: 72 h, 3 days after treatment, read-out: mortality in comparison with untreated controls
Description: (§1) The active compounds were formulated in cyclohexanone as a 10,000 ppm solution supplied in tubes. The tubes were inserted into an automated electrostatic sprayer equipped with an atomizing nozzle and they served as stock solutions for which lower dilutions were made in 50% acetone:50% water (v/v). A non-ionic surfactant (Kinetic®) was included in the solution at a volume of 0.01% (v/v).
Cotton plants at the cotyledon stage (one plant per pot) were sprayed by an automated electrostatic plant sprayer equipped with an atomizing spray nozzle. The plants were dried in the sprayer fume hood and then removed from the sprayer. Each pot was placed into a plastic cup and about 10 to 12 whitefly adults (approximately 3-5 days old) were introduced. The insects were collected using an aspirator and a nontoxic Tygon® tubing connected to a barrier pipette tip. The tip, containing the collected insects, was then gently inserted into the soil containing the treated plant, allowing insects to crawl out of the tip to reach the foliage for feeding. Cups were covered with a reusable screened lid. Test plants were maintained in a growth room at about 25° C. and about 20-40% relative humidity for 3 days, avoiding direct exposure to fluorescent light (24-hour photoperiod) to prevent trapping of heat inside the cup. Mortality was assessed 3 days after treatment, compared to untreated control plants.

[2] = tested on: yellow fever mosquito (Aedes aegypti); test: whole plant or invertebrate; settings: 48 h, freshly hatched larvae in tap water, assessed after 2 days, read-out: mortality in comparison with untreated controls (larval mortality)
Protocol: For evaluating control of yellow fever mosquito (Aedes aegypti) the test unit consisted of 96-well-microtiter plates containing 200 μl of tap water per well and 5-15 freshly hatched A. aegypti larvae. The active compounds were formulated using a solution containing 75% (v/v) water and 25% (v/v) DMSO. Different concentrations of formulated compounds or mixtures were sprayed onto the insect diet at 2.5 μl, using a custom built micro atomizer, at two replications.
After application, microtiter plates were incubated at 28+1° C., 80+5% RH for 2 days. Larval mortality was then visually assessed.

[3] = tested on: Western Flower Thrips (Frankliniella occidentalis); test: Western flower thrips on leaf discs of sprayed cotton plants; settings: foliar, 48 h, 2 DAT (days after treatment), read-out: mortality in comparison with untreated controls
Protocol: The active compounds were formulated by a Tecan liquid handler in 100% cyclohexanone as a 10,000 ppm solution supplied in tubes. The 10,000 ppm solution was serially diluted in 100% cyclohexanone to make interim solutions. These served as stock solutions for which final dilutions were made by the Tecan in 50% acetone:50% water (v/v) into 10 or 20 ml glass vials. A nonionic surfactant (Kinetic®) was included in the solution at a volume of 0.01% (v/v). The vials were then inserted into an automated electrostatic sprayer equipped with an atomizing nozzle for application to plants/insects.
Small (˜2″ in height) cotton plants are sprayed with test compounds at concentrations ranging from 300 to 0.01 ppm in acetone/water through the automated VPS. After drying, cotton leaves are removed and circular leaf discs (−1 cm diameter) are punched from the treated surface and transferred to clean 20 mL scintillation vials. Ten Western flower thrips (FRANOC) are aspirated into each scintillation vial. The vials with the leaf discs and thrips are kept in an upright incubator at 25° C. and 50% relative humidity with a 14:10 light:dark photoperiod. Each treatment is replicated twice.
Thrips mortality is assessed at 2 DAT (days after treatment), counting all thrips both dead and alive. [The average absolute mortality is calculated for each treatment.]

[4] = tested on: boll weevil (Anthonomus grandis); test: Boll weevil control, 96-well microtiter plate with insect diet and eggs; settings: 120 h, sprayed onto insect diet, assessed after 5 days, read-out: mortality in comparison with untreated controls (egg and larval mortality)
Protocol: For evaluating control of boll weevil (Anthonomus grandis) the test unit consisted of 96-well-microtiter plates containing an insect diet and 5-10 A. grandis eggs.
The compounds were formulated using a solution containing 75% v/v water and 25% v/v DMSO. Different concentrations of formulated compounds were sprayed onto the insect diet at 5 μl, using a custom built micro atomizer, at two replications.
After application, microtiter plates were incubated at about 25±1° C. and about 75±5% relative humidity for 5 days. Egg and larval mortality was then visually assessed.

[5] = tested on: Southern Armyworm (Spodoptera eridania), 2nd Instar Larvae; test: Southern armyworm 2nd instar larvae on sprayed lima bean plants; settings: 96 h, 4 days after treatment, read-out: mortality in comparison with untreated controls
Protocol: as §1, with “nonionic” for “non-ionic”
Lima bean plants (variety Sieva) were grown 2 plants to a pot and selected for treatment at the 1st true leaf stage. Test solutions were sprayed onto the foliage by an automated electrostatic plant sprayer equipped with an atomizing spray nozzle. The plants were dried in the sprayer fume hood and then removed from the sprayer. Each pot was placed into perforated plastic bags with a zip closure. About 10 to 11 armyworm larvae were placed into the bag and the bags zipped closed. Test plants were maintained in a growth room at about 25° C. and about 20-40% relative humidity for 4 days, avoiding direct exposure to fluorescent light (24 hour photoperiod) to prevent trapping of heat inside the bags. Mortality and reduced feeding were assessed 4 days after treatment, compared to untreated control plants.

[6] = tested on: tobacco budworm (Heliothis virescens); test: Tobacco budworm control, 96-well microtiter plate with insect diet and eggs; settings: 120 h, sprayed onto insect diet, assessed after 5 days, read-out: mortality in comparison with untreated controls (egg and larval mortality)
Protocol: For evaluating control of tobacco budworm (Heliothis virescens) the test unit consisted of 96-well-microtiter plates containing an insect diet and 15-25 H. virescens eggs.
The compounds were formulated using a solution containing 75% v/v water and 25% v/v DMSO. Different concentrations of formulated compounds were sprayed onto the insect diet at 10 μl, using a custom built micro atomizer, at two replications.
After application, microtiter plates were incubated at about 28±1° C. and about 80±5% relative humidity for 5 days. Egg and larval mortality was then visually assessed.

[7] = tested on: Diamond Back Moth (Plutella xylostella); test: Diamond back moth, cabbage leaf dip test; settings: foliar, 3rd instar larvae, 72 hours after treatment, read-out: mortality in comparison with untreated controls
Protocol: The active compound is dissolved at the desired concentration in a mixture of 1:1 (vol:vol) distilled water:acetone. Surfactant (Alkamuls® EL 620) is added at a rate of 0.1% (vol/vol). The test solution is prepared at the day of use.
Leaves of cabbage were dipped in test solution and air-dried. Treated leaves were placed in petri dish enlined with moist filter paper and inoculated with ten 3rd instar larvae. Mortality was recorded 72 hours after treatment. Feeding damages were also recorded using a scale of 0-100%.

[8] = tested on: Orchid Thrips (Dichromothrips corbetti); test: Orchid thrips, floral-immersion technique; settings: dipped orchid petals, adult thrips, 72 hours after treatment, read-out: mortality in comparison with untreated controls
Protocol: Dichromothrips corbetti adults used for bioassay were obtained from a colony maintained continuously under laboratory conditions. For testing purposes, the test compound is diluted in a 1:1 mixture of acetone:water (vol:vol), plus Kinetic® HV at a rate of 0.01% v/v.
Thrips potency of each compound was evaluated by using a floral-immersion technique. All petals of individual, intact orchid flowers were dipped into treatment solution and allowed to dry in Petri dishes. Treated petals were placed into individual re-sealable plastic along with about 20 adult thrips. All test arenas were held under continuous light and a temperature of about 28° C. for duration of the assay. After 3 days, the numbers of live thrips were counted on each petal. The percent mortality was recorded 72 hours after treatment.

CC(C)c1ccccc1N1C(=O)CS/C1=N\N=C\c1ccc2c(C(=O)Nc3ccc(OC(F)(F)F)cc3)nccc2c1 [Compound C-2, 6-[(E)-[(Z)-[3-(2-isopropylphenyl)-4-oxo-thiazolidin-2-ylidene]hydrazono]methyl]-N-[4-(trifluoromethoxy)phenyl]isoquinoline-1-carboxamide]
> 75%: mortality at 300 ppm [1] | mortality at 800 ppm [2] | mortality at 300 ppm [3] | mortality at 800 ppm [4] | mortality at 300 ppm [5] | mortality at 800 ppm [6] | mortality at 300 ppm [7] | mortality at 300 ppm [8]

CC(C)c1ccccc1NC(=S)N/N=C/c1ccc2c(C(=O)Nc3ccc(OC(F)(F)F)cc3)nccc2c1 [Compound C-1, 6-[(E)-[(2-isopropylphenyl)carbamothioylhydrazono]methyl]-N-[4-(trifluoromethoxy)phenyl]isoquinoline-1-carboxamide]
> 75%: mortality at 800 ppm [2] | mortality at 300 ppm [3] | mortality at 800 ppm [4] | mortality at 300 ppm [5] | mortality at 800 ppm [6] | mortality at 300 ppm [7] | mortality at 300 ppm [8]
